{"source": "patent US12357649B2", "about": "“Glycoalkaloid combinations and various uses thereof” (priority 2016, dated 2025)", "experiment": "Stability of cream formulation: HPLC assay of solamargine", "assay_type": "physicochemical", "conditions": "cream with 5% urea, 10% salicylic, 25°C, 60% RH", "procedure": "Visual appearance was conducted by comparison to standard commercially available solamargine cream composition. High-Performance Liquid Chromatography (HPLC) to determine quantity of solamargine in the cream, substantially as described in WO 2000061153 A1.", "data": [{"smiles": "C[C@@H]1CC[C@@]2(NC1)O[C@H]1C[C@H]3[C@@H]4CC=C5C[C@@H](O[C@@H]6O[C@H](CO)[C@@H](O[C@@H]7O[C@@H](C)[C@H](O)[C@@H](O)[C@H]7O)[C@H](O)[C@H]6O[C@@H]6O[C@@H](C)[C@H](O)[C@@H](O)[C@H]6O)CC[C@]5(C)[C@H]4CC[C@]3(C)[C@H]1[C@@H]2C", "note": "[Solamargine, (22R,25R)-spiro-5-en-3β-yl-α-L-rhamnopyranosyl-(1→2glu)-O-α-L-rhamnopyranosyl-(1→4glu)-β-D-gluco-pyranose]", "values": [{"measurement": "HPLC Assay Solamargine", "setting": "10% lactic acid, 1% Xanthan gum, 0 months", "value": 20.6, "unit": "μg/g cream"}, {"measurement": "HPLC Assay Solamargine", "setting": "10% lactic acid, 1% Xanthan gum, 3 months", "value": 23.1, "unit": "μg/g cream"}, {"measurement": "HPLC Assay Solamargine", "setting": "10% lactic acid, 1% Xanthan gum, 6 months", "value": 19.8, "unit": "μg/g cream"}, {"measurement": "HPLC Assay Solamargine", "setting": "10% lactic acid, 1% Xanthan gum, 9 months", "value": 21.2, "unit": "μg/g cream"}, {"measurement": "HPLC Assay Solamargine", "setting": "10% lactic acid, 1% Xanthan gum, 12 months", "value": 23.1, "unit": "μg/g cream"}, {"measurement": "HPLC Assay Solamargine", "setting": "10% lactic acid, 1% Xanthan gum, 18 months", "value": 20.4, "unit": "μg/g cream"}, {"measurement": "HPLC Assay Solamargine", "setting": "10% lactic acid, 1% Xanthan gum, 24 months", "value": 22.1, "unit": "μg/g cream"}, {"measurement": "HPLC Assay Solamargine", "setting": "10% lactic acid, 1% Xanthan gum, 36 months", "value": 19.8, "unit": "μg/g cream"}, {"measurement": "HPLC Assay Solamargine", "setting": "10% lactic acid, 1% Xanthan gum, 42 months", "value": 19.6, "unit": "μg/g cream"}, {"measurement": "HPLC Assay Solamargine", "setting": "10% lactic acid, 1% Xanthan gum, 48 months", "value": 21.2, "unit": "μg/g cream"}, {"measurement": "HPLC Assay Solamargine", "setting": "no lactic acid, no emulsion-stabilising agent, 0 months", "value": 18.3, "unit": "μg/g cream"}, {"measurement": "HPLC Assay Solamargine", "setting": "no lactic acid, no emulsion-stabilising agent, 3 months", "value": 19, "unit": "μg/g cream"}, {"measurement": "HPLC Assay Solamargine", "setting": "no lactic acid, no emulsion-stabilising agent, 6 months", "value": 21.1, "unit": "μg/g cream"}, {"measurement": "HPLC Assay Solamargine", "setting": "no lactic acid, no emulsion-stabilising agent, 9 months", "value": 9.2, "unit": "μg/g cream"}, {"measurement": "HPLC Assay Solamargine", "setting": "no lactic acid, no emulsion-stabilising agent, 12 months", "value": 7.3, "unit": "μg/g cream"}, {"measurement": "HPLC Assay Solamargine", "setting": "no lactic acid, no emulsion-stabilising agent, 18 months", "value": 6.8, "unit": "μg/g cream"}, {"measurement": "HPLC Assay Solamargine", "setting": "no lactic acid, no emulsion-stabilising agent, 24 months", "value": 5.1, "unit": "μg/g cream"}, {"measurement": "HPLC Assay Solamargine", "setting": "no lactic acid, no emulsion-stabilising agent, 36 months", "value": 5.3, "unit": "μg/g cream"}, {"measurement": "HPLC Assay Solamargine", "setting": "no lactic acid, no emulsion-stabilising agent, 42 months", "value": 5.1, "unit": "μg/g cream"}, {"measurement": "HPLC Assay Solamargine", "setting": "no lactic acid, no emulsion-stabilising agent, 48 months", "value": 5.2, "unit": "μg/g cream"}]}]}
